# Where a SMILES comes first, the peptide text is derived from it. [ ]: non-standard residue; d: D form. The star is where a group is joined. Nle = CCCC[C@H](N)C(=O)O; Cbz = O=C(OCc1ccccc1)*
# Legend:
# [1] = tested on: p135 O-glycosylation in pancreatic islets; test: Pancreatic islet p135 O-glycosylation (RL2 immunoprecipitation and Western blot); type: cell-based, rat; details: for inhibition of p135 O-glycosylation: comparison with NOC-15, FIG. 12
# Method: Rat pancreatic islets were isolated, counted into tubes and pre-incubated with 3 mM glucose. Following pre-incubation, islets were stimulated with 3 mM glucose, 5 mM STZ, 5 mM NOC-15, or 5 mM DPTA. NOC-15 ((Z)-1-[N-(3-Ammoniopropyl)-N-(n-propyl)amino]diazen-ium-1,2-diolate, also known as PAPA NONOate) is a structural analog of […] (FIG. 9). At the end of the experiment, O-glycosylated proteins were immunoprecipitated with RL2 antibody, which binds to O-linked N-acetylglucosamine. Immunoprecipitated proteins were run out on a 6.5% SDS-PAGE gel and the proteins were then transferred to a nitrocellulose blot. The blot was then probed with RL2 antibody, which was detected by the ECL method. The blot was exposed to X-ray film and the film was developed and photographed. […] The structure and action of NOC-15 can thus be used as a basis to synthesize drugs that can be used to prevent and/or treat diabetes.
# [2] = tested on: Sp1 proteasome degradation; test: Sp1 depletion in cells under low glucose and cAMP accumulation; type: cell-based
# Description: This study therefore correlated the stability of Sp1 against proteasome degradation with the level of Sp1 modification by O-GleNAc.
# The depletion of O-GlcNAc on Sp1 and other proteins appeared to have resulted both from the glucose starvation and from the cAMP.
# [3] = tested on: proteasome processing of Sp1 in nuclear extract; test: Sp1 degradation by proteasome in nuclear extract; type: biochemical; details: activated nuclear extract
# [4] = target: T1, brain proteasome LLVY chymotryptic activity (Rattus norvegicus, UniProt P28075); test: suc-LLVY-AMC cleavage in brain extract of streptozotocin-injected animals; type: in vivo
# T1 construct: Brain extract was prepared from animals injected with or without streptozotocin; from tissue; host or cells: brain extract
# T1 sequence (P28075 60-263): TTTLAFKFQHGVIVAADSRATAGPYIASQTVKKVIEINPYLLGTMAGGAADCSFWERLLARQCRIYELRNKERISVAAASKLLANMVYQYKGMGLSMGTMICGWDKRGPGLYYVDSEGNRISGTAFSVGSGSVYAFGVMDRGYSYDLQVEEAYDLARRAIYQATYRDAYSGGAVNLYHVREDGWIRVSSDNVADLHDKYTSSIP
# Method: To determine whether STZ-injected animals display a n alteration in proteasomal function, the cleavage of the peptide LLVY was examined following streptozotocin treatment. Brain extract was prepared from animals injected with or without streptozotocin, and suc-LLVY-AMC was added to the extract.
# [5] = target: T2, Purified recombinant O-GlcNAc transferase (Homo sapiens, UniProt O15294); test: Inhibition of purified recombinant O-GlcNAc transferase; type: biochemical
# T2 sequence (O15294 1-1046): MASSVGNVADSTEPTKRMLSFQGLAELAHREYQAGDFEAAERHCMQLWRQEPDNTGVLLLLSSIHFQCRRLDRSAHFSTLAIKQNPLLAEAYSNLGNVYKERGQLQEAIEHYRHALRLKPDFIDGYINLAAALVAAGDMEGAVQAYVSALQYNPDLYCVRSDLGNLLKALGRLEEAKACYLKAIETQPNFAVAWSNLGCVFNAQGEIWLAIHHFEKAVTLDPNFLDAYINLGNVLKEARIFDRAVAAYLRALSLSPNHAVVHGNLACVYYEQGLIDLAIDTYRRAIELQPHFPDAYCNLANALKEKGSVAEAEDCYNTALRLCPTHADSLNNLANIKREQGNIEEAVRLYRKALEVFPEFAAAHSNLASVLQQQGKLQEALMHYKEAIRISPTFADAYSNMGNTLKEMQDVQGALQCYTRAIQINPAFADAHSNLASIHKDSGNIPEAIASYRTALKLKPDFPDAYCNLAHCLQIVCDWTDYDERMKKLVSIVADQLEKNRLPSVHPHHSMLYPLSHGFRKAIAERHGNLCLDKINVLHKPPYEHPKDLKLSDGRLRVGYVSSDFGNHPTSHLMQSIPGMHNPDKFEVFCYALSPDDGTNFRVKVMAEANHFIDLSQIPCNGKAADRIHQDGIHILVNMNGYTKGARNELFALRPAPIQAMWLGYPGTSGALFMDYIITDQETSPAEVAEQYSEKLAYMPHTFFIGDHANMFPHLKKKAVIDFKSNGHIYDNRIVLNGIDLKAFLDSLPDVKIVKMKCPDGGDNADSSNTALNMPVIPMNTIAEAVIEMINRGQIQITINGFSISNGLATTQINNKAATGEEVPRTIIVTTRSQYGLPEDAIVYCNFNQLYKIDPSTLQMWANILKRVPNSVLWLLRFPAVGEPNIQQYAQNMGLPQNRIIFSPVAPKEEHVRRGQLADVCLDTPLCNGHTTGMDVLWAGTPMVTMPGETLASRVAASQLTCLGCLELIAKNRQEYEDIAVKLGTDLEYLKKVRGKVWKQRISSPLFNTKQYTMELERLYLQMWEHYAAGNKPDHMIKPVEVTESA
# Method: (§1) Another chemical means of inhibiting O-GlcNAc transferase has been discovered. Another long known diabetogenic drug, alloxan (ALX) (FIG. 8 above), is a uracil analog. Injections of this drug into laboratory rats also causes a relatively specific death of the pancreatic β-cells. […] Purified recombinant O-GlcNAc transferase is inhibited half-maximally by 0.1 mM alloxan, compatible with the dose of this drug that causes diabetes. These studies indicate that an analog of UDP-GlcNAc that mimics the uracil moiety like alloxan, might be an index compound for the discovery of other UDP-GlcNAc like molecules that inhibit the O-GlcNAc transferase.
# [6] = tested on: O-GlcNAc modification of p135 in isolated β-cells; test: O-GlcNAc modification of p135 in isolated β-cells treated with alloxan; type: cell-based
# Method: as §1
# [7] = target: T3, proteasome chymotryptic activity in NRK nuclear extracts (Rattus norvegicus, UniProt P28075); test: suc-LLVY-AMC proteasome peptidase assay in NRK nuclear extracts; type: biochemical; details: cells treated before extract preparation; data not shown
# T3 construct: endogenous in cells; host or cells: NRK cells, nuclear extract
# T3 sequence (P28075 60-263): T1 sequence (P28075 60-263)
# Method: The chymotryptic activity of the proteasome itself can be measured using short synthetic peptides. The peptide, N-succinyl-Leu-Leu-Val-Tyr-7-amido-4-methylcoumarin (suc-LLVY-AMC) (Sigma), is coupled to a fluorescent indicator, and the cleavage can be monitored and quantitated by a fluorometer. […] The reaction is carried out in a 96 well plate.
# If the chymotryptic cleavage has occurred, the fluorescence can b e excited with UV light at 365 nm and detected by a CCDdigital camera coupled to a computer. Because the LLVY peptide can be cleaved by any enzyme having chymotryptic activity, cleavage is not specifically proteasome-dependent. However, if cleavage is blocked by a wide spectrum proteasome inhibitors, then it is reasonable to deduce that the detected fluorescence is proteasome-dependent.
# Proteasome peptidase activity in activated NRK nuclear extracts was examined with this assay. The activity could be inhibited by preincubating the extract with known proteasome inhibitors indicating the fluorescent signal derives from authentic proteasome activity (FIG. 2). […] When the extract was exposed briefly to GST-OGT plus UDP-GlcNAc and then the O-GlcNAc transferase was removed, the chymotryptic activity was eliminated. GST had no effect on the proteasome activity. […] The chymotryptic activity of the proteasome was stimulated by this treatment.
# pancreatic islets = test: TUNEL assay and p53 staining of pancreatic slices from STZ-treated rats; type: in vivo, rat
# Method: The effect of streptozotocin on p53 accumulation in the islets was determined using immunohistochemistical analysis of pancreatic slices from rats treated for various times with STZ. […] This assay has been described thoroughly (Liu et al., 2000). The TUNEL positivity peaks at about 22-24 hours after the administration of STZ. When the tissue was stained with p53 antibodies, it was noted that p53 accumulation preceded the apoptosis. […] This corresponds with the observation the O-GlcNAc transferase is much more highly expressed in the endocrine pancreas. STZ also is toxic to the somatotropes in the pituitary where O-GlcNAc transferase is highly expressed. Thus, it is predicted there where O-GlcNAc transferase is abundant, STZ-sensitivity should be seen.
# [8] = tested on: TGFα promoter β-gal reporter in pancreatic β-cells; test: TGFα-βgal reporter activity in islets after streptozotocin injection; type: in vivo, mouse; details: TGFα-βgal reporter mice, dose that causes β-cell apoptosis
# Method: The TGFα promoter was placed in front of the β-galactosidase reporter gene and developed two lines of transgenic mice. The line with the best reporter activity was used in all subsequent experiments. Tissue expression of the reporter was detected as follows: tissues were quickly excised, cut into pieces, and fixed in 4% paraformaldehyde (made in PBS, pH 7.5) for 30 min at 4° C. Tissue sections were rinsed three times 10 min each in ice-cold PBS, immersed in freshly prepared staining solution [10 ml solution of PBS (pH 7.4) containing 2 mM MgCl2, 0.01% sodium deoxycholate, 0.02% NP40, 0.1% X-gal dissolved in dimethylformamide, 82.5 mg potassium ferricyanide, and 94.5 mg potassium ferrocyanide], and incubated overnight at 37° C. The reaction was stopped by rinsing the organs in PBS. Sampleswere stored in 70% ethanol at 4° C. […] For example, β-gal activity was detected in the pituitary and in some neurons, sites where native TGFα had been detected before. […] Of particular interest in this regard was the absence of staining in the exocrine and endocrine pancreas.
# Because p53 accumulates in the islet in response to STZ, and TGFα transcription is driven by p53, it is reasonable to examine the TGFα reporter mice for TGFα promoter activation in the islets. Mice were injected with streptozotocin at the dose that cause β-cell apoptosis. […]
# hippocampal neurons = test: Intracerebroventricular streptozotocin in TGFα-βgal mice: p53 staining and reporter function in brain; type: in vivo, mouse
# Method: A number of research groups have developed techniques of injecting streptozotocin into the cerebral ventricles (Lannert & Hoyer, 1998; Weinstock et al., 2001; Sharma & Gupta, 2002). To determine if treatment with streptozotocin causes p53 accumulation in the brain, freshly prepared streptozotocin can be injected stereotactically into the cerebral ventricles, and the brain tissues can then be stained for the presence of p53. When the control TGFα-βgal mice were injected with vehicle alone, no p53 was detected 16 hours post injection. […] STZ was also injected into TGFα-βgal mice with a homozygous knock-out of p53.
# The brains slices from similar mice receiving icv injections 36 hours prior to sacrifice were examined for TGFα-βgal reporter function.
# [9] = tested on: hippocampal neurons (CA1 region); test: RL2 immunostaining of brain O-GlcNAc after cerebroventricular streptozotocin; type: in vivo, rat; details: 6 hours after injection
# Method: To determine if streptozotocin causes hippocampal neuron O-GlcNAc accumulation, the drug was delivered stereotactically to the cerebroventricles of a rat brain. The brain tissues were then stained for O-GlcNAc content using the O-GlcNAc-specific monoclonal antibody, RL2. Staining of rat tissue by this mouse antibody is easier because detection is not hampered by endogenous mouse IgG. Staining is blocked by preincubation of RL2 with GlcNAc, but not GalNAc or glucosamine (needs acetylation) or other sugars. The bound RL2 can be detected by fluorescent-tagged antimouse IgG antibody. […] At 6 hours post-injection, the animals were sacrificed and brain O-GlcNAc content was detected with RL2 immunostaining as previously described (Liu et al., 2000).
smiles,measurement,setting,value
NCCCN(CCCN)/[N+]([O-])=N/O [DPTA],inhibition of p135 O-glycosylation,[1],do not inhibit
CC(C)C[C@@H](C=O)NC(=O)[C@H](CC(C)C)NC(=O)[C@H](CC(C)C)NC(=O)OCc1ccccc1 [MG132] (Cbz-Leu-Leu-Leu-aldehyde),loss of Sp1 under low glucose and cAMP accumulation,[2],blocked
CC(=O)N[C@H]1[C@@H](OP(=O)(O)OP(=O)(O)OC[C@H]2O[C@@H](n3ccc(=O)[nH]c3=O)[C@H](O)[C@@H]2O)O[C@H](CO)[C@H](O)[C@@H]1O [UDP-GalNAc],effect on the inhibitory effect of catalytically active O-GlcNAc transferase on Sp1 processing,[3],partially blocked
CC(C)[C@H](O)[C@@]12NC(=O)[C@H](C)[C@@H]1OC2=O [β-lactone],suc-LLVY-AMC fluorescence in brain extract,[4]; inhibitor added to extract,inhibited
CCCC[C@@H](C=O)NC(=O)[C@H](CC(C)C)NC(=O)[C@H](CC(C)C)NC(C)=O [LLnL] (Ac-Leu-Leu-[Nle]-aldehyde),loss of Sp1 under low glucose and cAMP accumulation,[2],blocked
O=C1NC(=O)C(=O)C(=O)N1 [alloxan],IC50,[5],100 µM
same,increase in the O-GlcNAc modification of p135 in response to glucose or glucosamine,[6],fail to display an increase
NCCCNCCCCN(CCCN)/[N+]([O-])=N/O [Spermine NONOate],inhibition of p135 O-glycosylation,[1],do not inhibit
N[C@H]1C(O)O[C@H](CO)[C@@H](O)[C@@H]1O (stereo partly shown) [glucosamine],proteasome chymotryptic activity of extract from treated cells,[7],does not display this activity
same,Sp1 degradation after glucose starvation and forskolin,[2]; cells provided glucosamine,degradation decreased
CN(N=O)C(=O)N[C@H]1C(O)O[C@H](CO)[C@@H](O)[C@@H]1O (mixture of isomers) [streptozotocin],effect on p135 O-glycosylation,"[1]; rat islets, 5 mM",stimulated
same,p53 accumulation in islets,pancreatic islets; at 16 hours,well established
same,time of peak TUNEL positivity after administration,pancreatic islets; rat islets,22 to 24 h
same,apoptosis in islets by TUNEL assay,pancreatic islets; rats treated with STZ,causes apoptosis
same,β-gal reporter activity in pancreas,[8],appeared in the β-cells but not exocrine pancreas
same,p53 by immunohistochemistry in neurons of the hippocampus,hippocampal neurons; 16 hours post icv injection,readily detectable
same,TGFα-βgal reporter function in hippocampal neurons,"hippocampal neurons; icv injection 36 hours prior to sacrifice, wildtype TGFα-βgal mice",show reporter function
same,O-GlcNAc signal in hippocampal neurons (RL2),[9],marked increase
same,LLVY chymotryptic activity in the brains of treated animals,"[4]; brain extract, preliminary results",marked inhibition
CC(=O)N[C@@H](CSC(=O)[C@]1([C@@H](O)C(C)C)NC(=O)[C@H](C)[C@@H]1O)C(=O)O [lactacystin],proteasome chymotryptic activity of extract from treated cells,[7],does not display this activity
same,loss of Sp1 under low glucose and cAMP accumulation,[2],blocked
"CCCN(CCCN)/[N+]([O-])=N/O [NOC-15, (Z)-1-[N-(3-Ammoniopropyl)-N-(n-propyl)amino]diazen-ium-1,2-diolate]",inhibition of STZ-induced p135 O-glycosylation,"[1]; rat islets, 5 mM streptozotocin and 5 mM NOC-15",almost completely inhibiting
